Each structure is given as a SMILES string.

Data on two compounds can be found in patent US5441941A, “1,2-dihydroellipticines with activity against CNS specific cancer” (The United States of America as represented by the …, priority 1993, dated 1995).

One series deals with DMS 114. Nature of the series: cells. To be noted: Homo sapiens; for CC50: DMS-114, read-out: LC-50.
Another series relates to DMS 273. Nature of the series: NCI in vitro screen, SRB percent growth, Small Cell Lung Cancer.
Setting [1] is: DMS-114, read-out: Percent Growth.

In the case of `Cc1ccc2[nH]c3c(C)c4c(c(C)c3c2c1)CN(C)C=C4` [Formula XI], the CC50 in the series on DMS 114 turned out to be 6.03 µM. Further, in the series on DMS 114 (setting [1]), the activity at 0.01 µM amounted to 80%, the activity at 0.1 µM is 73%, the activity at 10 µM is -74% and the activity at 100 µM is -68%.

With `COc1ccc2[nH]c3c(C)c4c(c(C)c3c2c1)CN(C)C=C4` [Formula VII], the CC50 in the series on DMS 114 is over 100 µM; in the series on DMS 273 (read-out: LC-50, PG=-50), 54.3 µM. The activity at 0.1 µM in the series with DMS 114 (setting [1]) was determined as 64%. Further, the activity at 1 µM with DMS 114 (setting [1]) stood at 11%. In addition, the activity at 10 µM with DMS 114 (setting [1]) is -37%. For the same compound, the activity at 100 µM with DMS 114 (setting [1]) was -46%. In addition, the “Percent Growth” value with DMS 273 (Log10 Concentration -4.0, 100 µM) is on record as -72%; in the series with DMS 273 (Log10 Concentration -5.0) it was 10%; with DMS 273 (Log10 Concentration -6.0, 1 µM), 48%; in the series on DMS 273 (Log10 Concentration -7.0, 0.1 µM), 77%; in the series on DMS 273 (Log10 Concentration -8.0), 98%.
